Experimental data taken from US20120289577A1, “COMPOSITION FOR TREATING OR PREVENTING HEARING LOSS COMPRISING NAPHTHOQUINONE-BASED COMPOUNDS” (KT&G LIFE SCIENCES CORPORATION, priority 2009, published 2012).

Tests used:
HSP60 [1] = assay: Location variation of HSP60 by cell staining; type: cell-based
Source text: Also, location variation of HSP60 was identified by cell staining.

HSP60 [2] = assay: Release amounts of HSP60 in mice by ELISA; type: in vivo
Protocol: (§1) It is generally known that HSP60 in mitochondria is released outside of the cells to bind to TLR2 or TLR4, thereby inducing strong inflammation. Accordingly, the release amounts of HSP60 in mice and HEI-OC1 cells were measured by the ELISA method.

HSP60 [3] = assay: Release amounts of HSP60 in HEI-OC1 cells by ELISA; type: cell-based
Protocol: as §1

[4] = tested on: outer and inner hair cells of Corti's organ explants; assay: Explants of the Corti's organ, shape and arrangement of hair cells; type: cell-based
HMGB1 [5] = assay: Extracellular release of HMGB1 by ELISA; type: cell-based
Source text: HMGB1 is, together with HSP60, known as an important mediator for the activation of TLRs and the resulting inflammation. Accordingly, the extracellular release of HMGB1 was identified by the ELISA method.

[6] = tested on: TNF-α, IL-6, HSP60, TLR2 and TLR4 expression in HEI-OC1 cells; assay: Expression of inflammation mediators by the PCR method; type: cell-based
[7] = tested on: outer and inner hair cells of the inner ear; assay: TUNEL identification of hair cell damage in inner ear; type: in vivo; conditions: 24-month-old mice, βL group vs control group
Source text: In order to identify damage of hair cells, the inner ears of the lab animals were enucleated and subject to terminal deoxynucleotidyl transferase-mediated dUTP nick end-labeling (TUNEL) from the top of cochlea to middle circular part thereof, followed by analyzing TUNEL positive cells using a fluorescence microscope.

[8] = tested on: C57BL/6 mice (age-related hearing loss model); assay: Auditory brainstem response (ABR) threshold in animal model with age-related presbycusis; type: in vivo; conditions: for ABR threshold: feed containing 0.06% β-lapachone; for recovery of ABR thresholds in comparison with the control group: p<0.05
Protocol: C57BL/6 mice which are well known as a age-related hearing loss model were used for this experiment. 12-month-old C57BL/6 mice were directly purchased from Central Lab. Animal Inc. (Seoul, Korea), and bred up to 24 months of age with measuring hearing loss every 3 months. All mice used in this experiment were bred in an axenic (germfree) animal facility maintaining constant temperature (22 to 26° C.) and humidity (55 to 60%).
All experiments were conducted for groups divided into a control group freely providing normal feed, caloric restriction (CR) group limiting dietary to 70%, and βL group providing feed containing 0.06% β-lapachone (compound 1).
In order to evaluate auditory brainstem response, all lab animals were intramuscularly injected with a mixture of xylazine (5 mg/kg) and ketamine for anesthesia and the variation of auditory brainstem response threshold was measured using a TDT system (Tucker-Davis Technologies, FL, USA) in a soundproof room.
An insertable ear tip (3.5 mm, Nicolet Biomedical, Inc.) was placed in the external auditory meatus, electrodes were placed at scalp vertex (active electrode), the mastoid region of the ear of interest (reference electrode) and the mastoid region of the opposite ear (ground electrode), and the threshold of ABS was measured by starting with 90 dB HL intensity and then sequentially decreasing the intensity by 10 dB at 4, 8, 16 and 32 kHz.
There was no arousal response and death due to respiratory depression during the ABR test. The comparison of the ABR thresholds between groups was conducted by one-way analysis of variance (ANOVA) and P value of 0.05 or less was regarded as being significant.

6-week-old C57BL/6 mice = type: in vivo; conditions: β-lapachone (10, 20 and 40 mg/kg/day) and cisplatin for 4 days, p<0.05
Protocol: 6-week-old C57BL/6 mice were bred in an axenic (germfree) animal facility maintaining constant temperature (22 to 26° C.) and humidity (55 to 60%).
The comparison of the ABR thresholds between groups was conducted by one-way analysis of variance (ANOVA) and P value of 0.05 or less was regarded as being significant.

HMGB1 [9] = assay: HMGB1 expression in inner ear by tissue staining; type: in vivo; conditions: 21-month-old mice, compared to control and CR groups
Protocol: In order to identify an effect of β-lapachone against the expression of HMGB1 which is known to be important for the damage and shape variation of mitochondria, a tissue staining was conducted.

mitochondria = assay: Shape variations of mitochondria by transmission electron microscope (TEM); type: in vivo; conditions: 24-month-old mice, compared to 2-month-old lab animals
Source text: Also, in order to identify inhibition of age-related mitochondria damage by β-lapachone, the shape variations of mitochondria were detected for three groups of 24-month-old lab animals using a transmission electron microscope (TEM).

[10] = tested on: HEI-OC1 auditory hair cell line; type: cell-based; conditions: β-lapachone 30 minutes before treating with cisplatin, p<0.05
[11] = HEI-OC1 cells treated with cisplatin

N.N.[Cl][Pt][Cl] [cisplatin, reference compound]
location of HSP60 (HSP60 [1]; cells treated with cisplatin): HSP60 was almost expressed in cytoplasm
release amounts of HSP60 (HSP60 [2]; mice treated with cisplatin, p<0.05): significantly increased release amounts of HSP60
release amounts of HSP60 (HSP60 [3]; HEI-OC1 cells treated with cisplatin, p<0.05): significantly increased release amounts of HSP60
shape and arrangement of the outer and inner hair cells ([4]; treated with cisplatin): shape and arrangement of the outer and inner hair cells were changed
extracellular release of HMGB1 (HMGB1 [5]; [11]): extracellular release of excessive amounts of HMGB1
expression of inflammation mediators (TNF-α, IL-6, HSP60, TLR2, TLR4) [6, 11]: increased expression of inflammation-inducing cytokines such as TNF-α, IL-6 and HSP60 and inflammation mediators such as TLR2 and TLR4

CC1(C)CCC2=C(O1)c1ccccc1C(=O)C2=O [β-lapachone]
age-related apoptosis (TUNEL positive cells) in inner ear [7]: significantly inhibited the age-related apoptosis in the whole inner ear
ABR threshold ([8]; 15-month-old mice, 4 kHz): 63.33±11.55 dB SPL
ABR threshold ([8]; 15-month-old mice, 8 kHz): 33.33±15.28 dB SPL
ABR threshold ([8]; 15-month-old mice, 16 kHz): 46.67±5.77 dB SPL
ABR threshold ([8]; 15-month-old mice, 32 kHz): 53.33±5.77 dB SPL
ABR threshold ([8]; 18-month-old mice, 4 kHz): 80±0 dB SPL
ABR threshold ([8]; 18-month-old mice, 8 kHz): 46.67±11.55 dB SPL
ABR threshold ([8]; 18-month-old mice, 16 kHz): 56.67±11.55 dB SPL
ABR threshold ([8]; 18-month-old mice, 32 kHz): 66.67±11.55 dB SPL
recovery of ABR thresholds in comparison with the control group ([8]; 21-month-old mice, 4, 8, 16 and 32 kHz): statistically significant recovery at regions except for 16 kHz
ABR threshold ([8]; 21-month-old mice, 4 kHz): 56.67±5.77 dB SPL
ABR threshold ([8]; 21-month-old mice, 8 kHz): 46.67±5.77 dB SPL
ABR threshold ([8]; 21-month-old mice, 16 kHz): 53.33±15.28 dB SPL
ABR threshold ([8]; 21-month-old mice, 32 kHz): 46.67±5.77 dB SPL
recovery of ABR thresholds in comparison with the control group ([8]; 24-month-old mice, 4, 8, 16 and 32 kHz): statistically significant recovery at all regions
recovery of ABR threshold in comparison with the control group ([8]; 24-month-old mice, at 8 to 32 kHz except for 4 kHz): no less than 30 dB SPL
ABR threshold ([8]; 24-month-old mice, 4 kHz): 73.33±5.77 dB SPL
ABR threshold ([8]; 24-month-old mice, 8 kHz): 43.33±5.77 dB SPL
ABR threshold ([8]; 24-month-old mice, 16 kHz): 53.33±5.77 dB SPL
ABR threshold ([8]; 24-month-old mice, 32 kHz): 53.33±11.55 dB SPL
location of HSP60 (HSP60 [1]; cells treated with both β-lapachone and cisplatin): HSP60 was expressed in only mitochondria like the normal cells
release amounts of HSP60 (HSP60 [2]; mice treated with both β-lapachone and cisplatin): decreased release amounts of HSP60 in a β-lapachone concentration-dependent manner
release amounts of HSP60 (HSP60 [3]; HEI-OC1 cells treated with both β-lapachone and cisplatin): decreased release amounts of HSP60 in a β-lapachone concentration-dependent manner
recovery of ABR thresholds as compared to the CDDP group (6-week-old C57BL/6 mice): statistically significant recovery at all regions
expression of HMGB1 in the inner ear (HMGB1 [9]): significantly decreased expression of HMGB1
shape and arrangement of the auditory hair cells ([4]; treated with both β-lapachone and cisplatin): maintained the shape and arrangement of the auditory hair cells similar to the control group
number and shape of mitochondria (TEM) (mitochondria): number and shape of mitochondria similar to the 2-month-old lab animals
extracellular release amounts of HMGB1 (HMGB1 [5]; HEI-OC1 cells treated with cisplatin and β-lapachone, p<0.05): the release amounts decreased in a β-lapachone concentration-dependent manner
expression of inflammation mediators by cisplatin (TNF-α, IL-6, HSP60, TLR2, TLR4) ([6]; HEI-OC1 cells, β-lapachone 30 minutes before cisplatin): inhibited by β-lapachone in a concentration-dependent manner
protection from apoptosis by cisplatin (cell viability, MTT) [10]: protected the apoptosis by cisplatin in a concentration-dependent manner
